The values that follow are results of earlier work, collected in US20080064913A1 (priority 2005, published 2008).

The data set concerns rat. The following applies: in vivo.

With `NN` [hydrazine], the “LD50 (rat)” value was 60 mg/kg.
